Experimental findings from ChEMBL document CHEMBL1149619, “E,E,E-1-(4-Arylamino-4-oxo-2-butenoyl)-3,5-bis(arylidene)-4-piperidones: a topographical study of some novel potent cytotoxins” (Bioorg Med Chem, 2007) are described below.

Series [1] in a line: Cytotoxicity against human Molt 4/C8 cells. The format is functional, cell-based. As to conditions: Molt4/C8.
Series [2] relates to CCRF-CEM. Description: Cytotoxicity against human CEM cells. The format is functional, cell-based.
The test system of series [3] is L1210. Description: Cytotoxicity against mouse L1210 cells. The format is functional, cell-based.
The target in series [4] is T1, Glycylpeptide N-tetradecanoyltransferase 1 (Homo sapiens) (UniProt P30419).
T1 sequence (whole entry): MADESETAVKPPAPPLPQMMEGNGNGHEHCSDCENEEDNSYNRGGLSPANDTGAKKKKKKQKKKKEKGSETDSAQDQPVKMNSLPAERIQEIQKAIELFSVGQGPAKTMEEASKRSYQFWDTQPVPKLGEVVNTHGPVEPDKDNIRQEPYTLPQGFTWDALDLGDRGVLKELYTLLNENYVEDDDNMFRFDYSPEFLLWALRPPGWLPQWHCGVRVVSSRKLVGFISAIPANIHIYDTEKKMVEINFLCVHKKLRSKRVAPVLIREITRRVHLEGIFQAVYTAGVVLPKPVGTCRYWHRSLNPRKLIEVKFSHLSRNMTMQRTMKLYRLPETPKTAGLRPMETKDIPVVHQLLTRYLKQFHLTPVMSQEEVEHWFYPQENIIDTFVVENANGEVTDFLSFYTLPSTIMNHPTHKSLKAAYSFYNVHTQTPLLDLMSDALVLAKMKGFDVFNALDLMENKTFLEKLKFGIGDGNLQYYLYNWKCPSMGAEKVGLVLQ
Description: Inhibition of human NMT at 50 uM.

In series [5] the test system is Aspergillus fumigatus. Put plainly: Antifungal activity against Aspergillus fumigatus F69827. Type of series: functional.
The test system of series [6] is Aspergillus fumigatus. Description: Antifungal activity against Aspergillus fumigatus M44251. The format is functional.
The test system of series [7] is Aspergillus fumigatus. Description: Antifungal activity against Aspergillus fumigatus ATCC 280995. The format is functional.
Series [8] relates to Aspergillus fumigatus. Put plainly: Antifungal activity against Aspergillus fumigatus ATCC 280996. Type of series: functional.
Series [9] has as its system Aspergillus fumigatus. Put plainly: Antifungal activity against Aspergillus fumigatus ATCC 280997. Type of series: functional.
The test system of series [10] is Mus musculus. Put plainly: Neurotoxicity in mouse assessed as mortality up to 300 mg/kg after 4 hrs. Type of series: toxicity, organism-based. Also on record: dose 300 mg/kg. As to conditions: in vivo.

Consider `Cc1ccc(NC(=O)/C=C/C(=O)N2C/C(=C\c3ccccc3)C(=O)/C(=C/c3ccccc3)C2)cc1`, for which the concentration for half-maximal inhibition (IC50) was 0.66 µM in series [1], 1.1 µM in series [2] and 5.8 µM in series [3]. In addition, the inhibition in series [4] was found to be 50%. Moreover, the MIC in series [5], in [6], in series [7], in series [8] and in [9] was above 50 mg/L in each case. The Activity entry in series [10] is reported as “Non-toxic”.

The IC50 is the midpoint of a concentration-inhibition curve. A low value points to greater potency in that assay. For orientation: inhibition means the relative decrease from the control value, in per cent. In general, MIC refers to the smallest concentration in the dilution series that meets the test's criterion for growth inhibition. Low readings indicate greater potency, high ones weaker potency.
